Assay results taken from paper PMC7083880 (Nature Communications, 2020).

How the values were obtained:
[1] = test system: Calu-6 cell tumors in nude mice; assay: In vivo established Calu-6 tumors: tumor size and p53 western blot; design: species or system mouse
Experimental: For each experimental condition, 7 mice were used. b Fourteen nude mice were injected with Calu-6 cells to promote tumor development. […] The arrow indicates the starting time of the exposure to DMSO or DAP. For each experimental condition, 7 mice were used. […] GAPDH was used as loading control. A molecular weight marker is indicated to the left of the gel. The results presented in this figure are representative of two independent experiments. p-values (p) were calculated using Student’s t-test. Source data are provided as a Source Data file.
Next, the capacity of DAP to correct UGA nonsense mutations in vivo was assessed in a mouse model. Four-week-old immunodeficient nude mice were injected with an identical number of Calu-6 cells carrying a UGA nonsense mutation in the TP53 gene, of HCC-GR6 cells having a wild-type TP53 gene or of p53-null 4T1 cells. […] The slower growth of Calu-6-cell-derived tumors in DAP-treated mice is thus likely due to rescue of p53 protein synthesis in these tumors, as expected on the basis of our cell culture experiments and as observed after western-blotting applied to protein extracts of tumors from DAP-treated mice (Supplementary Fig. 8B). Because of the small size of the Calu-6 tumors in DAP-treated mice and thus the high probability of collecting mouse cells upon tumor excision, quantitation of p53 was done in another experiment.
To initiate tumor growth, 6-week-old nude mice received subcutaneously 10 million cells suspended in PBS. […] Tumors were measured three times weekly for 5 weeks to determine the tumor volume by the following formula: l (mm) × L (mm) × L (mm). The tumors were then collected and a fraction was used for western blot analysis after protein extraction. All in vivo experiments complied with all relevant ethical regulations for animal testing and research and were authorized by the Ethic Committee 075 under the number 12971-2018010815336092.

[2] = test system: tRNA 2′-O-methylation in HeLa cells; assay: tRNA 2′-O-methylation analysis by RiboMethSeq; format: cell-based, human; settings: 25 µM DAP, 24 h
Description: (§1) Firefly luciferase from HEK293FT cells transfected with the Fluc-int-UGA construct was immunoprecipitated and digested with trypsin. The MS/MS spectrum of the peptide containing the PTC position and the sequence determination are shown. The upper red and blue sequences indicate the amino acids validated, respectively, by detection of Nter and Cter peptide fragments (b and y ion series). Peptide fragments y6 and y7 clearly identify tryptophan (W) at the PTC position. The black peaks correspond to non-attributed mass-to-charge ratio (m/z) values. […] Readthrough efficiency was determined by measuring luciferase activity in HeLa cells co-transfected with the firefly luciferase construct described in Fig. 1b and with increasing amounts of an expression vector for either FTSJ1 or CTU1 (0.5, 1, or 2 µg). The empty expression vector (E.v.) was used as control. […] The experiment was performed twice and the results of both experiments (Exp1 and Exp2) are shown. c Western blot analysis of FTSJ1 and CTU1. d 2′-O-methylation analysis of tRNA^Trp, tRNA^SER, and tRNA^GLN by RiboMethSeq. […] A molecular weight marker is indicated to the left of each gel. p-values (p) were calculated using Student’s t-test. Source data are provided as a Source Data file.
HeLa cells were incubated with DMSO or DAP before extraction of small RNAs (which include tRNAs). RiboMethSeq analysis of human tRNAs was then performed. […] Although the human targets of FTSJ1 remain poorly characterized, modification of Cm34 in tRNA^Trp has been attributed to FTSJ1 (ref. [41]). […] This is consistent with DAP-dependent inhibition of FTSJ1 activity. The third hit was 2′-O-methylation of tRNA^Ser at position Gm18, attributed to TARBP1 activity.
The detailed protocol and a description of the RiboMethSeq assay are provided elsewhere.

FTSJ1 = target: T1, FTSJ1 (Homo sapiens, UniProt Q9UET6); assay: DAP affinity column chromatography; format: binding; settings: HeLa cell extract
T1 construct: host or cells: HeLa
T1 sequence (Q9UET6 1-329): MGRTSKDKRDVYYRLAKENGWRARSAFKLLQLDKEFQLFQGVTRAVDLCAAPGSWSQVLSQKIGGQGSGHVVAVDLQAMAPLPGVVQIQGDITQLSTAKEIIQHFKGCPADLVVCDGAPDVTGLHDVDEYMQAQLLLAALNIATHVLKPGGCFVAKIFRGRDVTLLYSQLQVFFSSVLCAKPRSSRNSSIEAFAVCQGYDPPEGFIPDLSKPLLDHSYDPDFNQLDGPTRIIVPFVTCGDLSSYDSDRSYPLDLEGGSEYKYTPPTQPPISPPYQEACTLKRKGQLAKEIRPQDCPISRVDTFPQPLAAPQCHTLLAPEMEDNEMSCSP
Description: as §1
The eluate was analyzed by western blotting for the presence of various proteins, including FTSJ1. […]

## Nc1nc(N)c2[nH]cnc2n1 [DAP, 2,6-diaminopurine]
[1]; measure 1 of 10 (time not given), DAP started when tumors about 0.4 cm^3
  Tumor size, average of 7 mice: 0.002 cm^3
[1]; measure 2 of 10 (time not given)
  Tumor size, average of 7 mice: 0.02357 cm^3
[1]; measure 3 of 10 (time not given)
  Tumor size, average of 7 mice: 0.05086 cm^3
[1]; measure 4 of 10 (time not given)
  Tumor size, average of 7 mice: 0.07071 cm^3
[1]; measure 5 of 10 (time not given)
  Tumor size, average of 7 mice: 0.1153 cm^3
[1]; measure 6 of 10 (time not given)
  Tumor size, average of 7 mice: 0.1741 cm^3
[1]; measure 7 of 10 (time not given)
  Tumor size, average of 7 mice: 0.2344 cm^3
[1]; measure 8 of 10 (time not given)
  Tumor size, average of 7 mice: 0.3563 cm^3
[1]; measure 9 of 10 (time not given)
  Tumor size, average of 7 mice: 0.4617 cm^3
[1]; measure 10 of 10 (time not given)
  Tumor size, average of 7 mice: 0.5429 cm^3
[2]
  2′-O-methylation of tRNA^Trp at position 34: Notably affected
  Cm32 methylation of tRNA^Gln: reduced Cm32 methylation
  Level of tRNA 2′-O-methylation: significantly lower for three tRNAs
FTSJ1
  Binding to FTSJ1 (affinity column, western blot of eluate): binds to FTSJ1
